Results published in paper PMC8421423, “Cellular model system to dissect the isoform-selectivity of Akt inhibitors” (Nature Communications, 2021).
“And” between values parts separate entries of the source, which are not always exact repeats. Identical values can stand only once. Like-named read-outs stand apart in the source and are kept apart here.

Experiments:
[1] = target: Akt1 (Homo sapiens, UniProt P31749); test: Cellular thermal shift assay (CETSA) in PANC1 cells; type: cell-based; set-up: purchased ProQinase #1379-0000-2
Description: (§1) Cells were seeded into 100 mm tissue culture plates (Sarstedt) (PANC1: 10^6 cells). After 24 h incubation, cells were treated with 1 µM of inhibitors or DMSO and were incubated for 4.5 h. Cells were washed twice with ice-cold PBS and then suspended in 1 mL PBS. Cells were collected and separated into equal volumes (100 µL). The aliquots were treated individually with different temperatures for 3 min, followed by a 3 min incubation at room temperature. Cell lysis was initiated by adding 100 µL RIPA buffer and 2 freeze-thaw cycles in liquid nitrogen. The lysates were centrifuged at 21,130×g for 20 min at room temperature. The supernatants were transferred into fresh, pre-cooled microcentrifuge tubes, and analyzed by western blot analysis as described above.

[2] = system: Ba/F3^myr-Akt2 cells; test: CellTiter-Glo cell viability assay; settings: for cell viability: CTG
[3] = target: Akt3 (Homo sapiens, UniProt Q9Y243); test: STK HTRF KinEASE activity-based assay (IC50)
[4] = target: T1, Akt2 (Homo sapiens, UniProt P31751); test: STK HTRF KinEASE activity-based assay (IC50)
[5] = system: pAkt2; test: Western blot analysis, PANC1 cells; type: cell-based, human; settings: PANC1, 24-h treatment
Description: Cells were seeded into six-well tissue culture plates (Sarstedt) (BaF3 myr-Akt1/2/3: 10^6 cells/well, PANC1: 250.000 cells/well). […] Cell lysis was initiated by addition of 100 μL RIPA buffer (Cell Signaling Technology) per well supplemented with phosphatase and protease inhibitor cocktails (Sigma) followed by incubation on ice for 20 min. Cells were then harvested by scraping (PANC1) or centrifugation (BaF3). Whole cell lysates were cleared by centrifugation at 14,000×g/4 °C for 10 min and transferred into fresh, pre-cooled microcentrifuge tubes. Protein concentrations were determined using the Pierce BCA protein assay (Thermo) as per manufacturer’s instructions. Equal amounts of protein were separated by SDS-PAGE and transferred to Immobilon-FL PVDF membranes (Merck Millipore) using Pierce™ 1-step transfer buffer (Thermo) and the Pierce™ Power Blotter (Thermo). Membranes were washed for 5 min with ddH2O, blocked with Intercept®Blocking Buffer TBS (Li-Cor) for 1 h at room temperature, and then incubated with primary antibodies diluted in Intercept®Blocking Buffer TBS overnight at 4 °C with gentle agitation. On the next day, the membranes were washed three times with TBS-T (50 mM Tris, 150 mM NaCl, 0.05 % Tween 20, pH 7.4) for 5 min before being incubated with secondary antibodies diluted in Intercept®Blocking Buffer TBS for 1 h at room temperature with gentle agitation. Finally, the membranes were washed three times for 5 min with TBS-T and then scanned using an Odyssey®CLx imaging system (Li-Cor).

[6] = target: T1, Akt2; test: Cellular thermal shift assay (CETSA) in PANC1 cells; type: cell-based; set-up: purchased Thermo Fisher Scientific #PV3184
Description: as §1

[7] = CETSA PANC1, 0.3 µM, temperature 39.9
[8] = CETSA PANC1, 0.3 µM, temperature 43.5
[9] = CETSA PANC1, 0.3 µM, temperature 48.4
[10] = CETSA PANC1, 0.3 µM, temperature 53.8
[11] = CETSA PANC1, 0.3 µM, temperature 58.1
[12] = CETSA PANC1, 0.3 µM, temperature 61.4
[13] = CETSA PANC1, 0.3 µM, temperature 65.6
[14] = CETSA PANC1, 0.3 µM, temperature 70.9
[15] = CETSA PANC1, 0.3 µM, temperature 76
[16] = CETSA PANC1, 0.3 µM, temperature 79.9
[17] = CETSA PANC1, 1 µM, temperature 39.9
[18] = CETSA PANC1, 1 µM, temperature 43.5
[19] = CETSA PANC1, 1 µM, temperature 48.4
[20] = CETSA PANC1, 1 µM, temperature 53.8

Chain of Akt3 (Q9Y243 whole entry): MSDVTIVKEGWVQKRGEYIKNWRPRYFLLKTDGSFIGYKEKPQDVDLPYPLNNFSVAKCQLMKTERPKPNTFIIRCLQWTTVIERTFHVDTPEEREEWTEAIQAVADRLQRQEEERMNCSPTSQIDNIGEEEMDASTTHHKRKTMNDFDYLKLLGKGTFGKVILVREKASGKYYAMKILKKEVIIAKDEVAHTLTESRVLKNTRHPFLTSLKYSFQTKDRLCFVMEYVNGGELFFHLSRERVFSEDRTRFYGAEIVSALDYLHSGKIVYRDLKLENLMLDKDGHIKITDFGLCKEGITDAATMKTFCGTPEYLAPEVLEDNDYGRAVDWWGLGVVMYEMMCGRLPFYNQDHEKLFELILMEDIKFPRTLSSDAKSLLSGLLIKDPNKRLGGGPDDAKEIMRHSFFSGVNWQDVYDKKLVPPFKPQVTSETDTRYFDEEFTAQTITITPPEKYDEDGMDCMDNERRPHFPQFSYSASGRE
Chain of Akt1 (P31749 whole entry): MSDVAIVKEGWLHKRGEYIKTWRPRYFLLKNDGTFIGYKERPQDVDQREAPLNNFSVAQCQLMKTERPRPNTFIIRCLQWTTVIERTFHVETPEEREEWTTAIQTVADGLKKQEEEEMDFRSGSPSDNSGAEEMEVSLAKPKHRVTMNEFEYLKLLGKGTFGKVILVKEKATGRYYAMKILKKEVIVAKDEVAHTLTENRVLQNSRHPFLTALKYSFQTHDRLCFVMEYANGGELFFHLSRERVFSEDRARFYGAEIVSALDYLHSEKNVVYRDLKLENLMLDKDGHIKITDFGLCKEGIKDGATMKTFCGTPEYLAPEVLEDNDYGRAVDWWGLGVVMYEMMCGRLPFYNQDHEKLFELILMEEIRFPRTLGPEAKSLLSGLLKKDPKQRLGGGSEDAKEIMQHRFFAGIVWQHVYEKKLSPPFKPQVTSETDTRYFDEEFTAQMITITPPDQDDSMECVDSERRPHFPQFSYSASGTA
T1 sequence (P31751 whole entry): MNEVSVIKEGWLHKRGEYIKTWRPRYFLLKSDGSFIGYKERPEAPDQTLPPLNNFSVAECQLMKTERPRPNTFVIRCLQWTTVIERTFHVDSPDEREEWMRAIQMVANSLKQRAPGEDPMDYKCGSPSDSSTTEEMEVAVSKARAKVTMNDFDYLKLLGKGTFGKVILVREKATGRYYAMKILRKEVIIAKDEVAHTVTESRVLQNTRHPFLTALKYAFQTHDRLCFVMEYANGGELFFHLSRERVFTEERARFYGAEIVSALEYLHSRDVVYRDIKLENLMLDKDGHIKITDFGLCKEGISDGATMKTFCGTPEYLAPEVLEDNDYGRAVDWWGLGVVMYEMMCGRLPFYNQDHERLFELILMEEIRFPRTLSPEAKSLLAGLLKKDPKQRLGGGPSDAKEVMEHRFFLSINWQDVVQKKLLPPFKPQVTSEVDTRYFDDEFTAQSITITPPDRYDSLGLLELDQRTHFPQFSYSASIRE

With `C=CC(=O)Nc1ccc2[nH]c(=O)n(C3CCN(Cc4ccc(-c5ncccc5-c5ccccc5)cc4)CC3)c2c1` [compound 1] the tAkt1 % [1, 7] was 100.00%, the tAkt1 % [1, 8] was 101.52% and the tAkt1 % [1, 9] was 79.62%. The tAkt1 % [1, 10] was 74.15%, the tAkt1 % [1, 11] was 68.37% and the tAkt1 % [1, 12] was 51.95%. The tAkt1 % [1, 13] was 36.13%, the tAkt1 % [1, 14] was 22.45% and the tAkt1 % [1, 15] was 11.95%. The tAkt1 % [1, 16] was 0.00%, the tAkt1 % [1, 17] was 100.00% and the tAkt1 % [1, 18] was 88.73%. For the same compound, the tAkt1 % [1, 19] was 82.43%, the tAkt1 % [1, 20] was 73.59% and the tAkt1 % ([1]; CETSA PANC1, 1 µM, temperature 58.1) was 56.69%. The tAkt1 % ([1]; CETSA PANC1, 1 µM, temperature 61.4) was 2.43%, the tAkt1 % ([1]; CETSA PANC1, 1 µM, temperature 65.6) was 11.71% and the tAkt1 % ([1]; CETSA PANC1, 1 µM, temperature 70.9) was 5.41%. The tAkt1 % ([1]; CETSA PANC1, 1 µM, temperature 76) was 0.00%, the tAkt1 % ([1]; CETSA PANC1, 1 µM, temperature 79.9) was 0.00% and the “thermal stabilization of Akt1 (CETSA, in words)” value ([1]; PANC1, 0.3 µM) was “preferred stabilization of Akt1”. For the same compound, the “thermal stabilization of Akt1 (CETSA, in words)” value ([1]; PANC1, 1 µM) was “losing this selectivity”, the cell viability ([2]; myr-Akt2, 0.1 nM, single replicates, 0.0001 µM) was 96.6 % of control and 111.8 % of control and the cell viability ([2]; myr-Akt2, 5000 nM, single replicates, 5 µM) was 74.8 % of control and 79.6 % of control. For the same compound, the EC50 ([2]; Mus musculus, read-out: CTG BaF3myr-Akt2, Mean, mean of replicates) was 4.47 µM, the viability at 0.0001 µM ([2]; Mus musculus, read-out: cell viability, CTG, myr-Akt2, 0.1 nM, single replicates) was 105% and the viability at 5 µM ([2]; Mus musculus, read-out: cell viability, CTG, myr-Akt2, 5000 nM, single replicates) was 84.5%. The EC50 ([2]; read-out: CTG BaF3myr-Akt2, individual determinations, single replicates) was 6.33 µM and 5.56 µM and 1.52 µM, the IC50 ([3]; HTRF IC50 Akt3, individual determinations, single replicates) was 5.63 µM and 8.2 µM and 6.05 µM and the IC50 ([3]; IC50 Akt3, HTRF, ATP at KM, 1 h preincubation) was 6.63 ± 1.13 µM. For the same compound, the “loss of activity for Akt3 compared to Akt1” value ([3]; biochemical IC50) was 100 fold, the IC50 ([4]; HTRF IC50 Akt2, Mean, mean of replicates) was 0.599 µM and the IC50 ([4]; HTRF IC50 Akt2, individual determinations, single replicates) was 0.658 µM and 0.512 µM and 0.626 µM. The IC50 ([4]; IC50 Akt2, HTRF, ATP at KM, 1 h preincubation) was 0.599 ± 0.063 µM, the “loss of activity for Akt2 compared to Akt1” value ([4]; biochemical IC50) was 10 fold and the “pAkt2 level (immunoblot)” value [5] was “downregulation of pAkt1 and pAkt2”. It also gave a tAkt2 % [6, 7] of 100.00%, a tAkt2 % [6, 8] of 64.53% and a tAkt2 % [6, 9] of 56.84%. It also gave a tAkt2 % [6, 10] of 46.79%, a tAkt2 % [6, 11] of 50.34% and a tAkt2 % [6, 12] of 34.71%. The tAkt2 % [6, 13] was 11.57%, the tAkt2 % [6, 14] was 0.00% and the tAkt2 % [6, 15] was 3.97%. It also gave a tAkt2 % [6, 16] of 0.00%, a tAkt2 % [6, 17] of 100.00% and a tAkt2 % [6, 18] of 102.86%. The tAkt2 % [6, 19] was 75.10% and the tAkt2 % [6, 20] was 33.02%.
